For assay [1], the target named is T1, PRMT5 (Homo sapiens, UniProt O14744).
T1 construct: purchased Viva (custom protein)
In words: PRMT5 biochemical IC50 assay with MTA as cofactor. The following applies: PRMT5, MTA as cofactor; read-out: MTA IC50.

Assay [2] relates to HAP1 MTAP-deleted cell line. Description: SDMA in-cell western assay, HAP1 MTAP-deleted. The class given is cell-based. The following applies: for IC50: Homo sapiens, HAP1, SDMA in-cell western, HAP1 MTAP-deleted; for MTAP intact/deleted ratio: SDMA in-cell western. The essentials:
(§1)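 Readout: in-cell western detection of SDMA. Cells: HAP1 expressing endogenous MTAP and an MTAP-null HAP1 counterpart. Output: IC50.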

The subject of assay [3] is HAP1 MTAP-deleted cell line. In words: Viability assay, MTAP-deleted cell line. The class given is cell-based. The following applies: Homo sapiens, read-out: HAP1 MTAP deleted viability. An excerpt: Table 1 additionally indicates IC50 values in a viability assay for the MTAP-deleted cell line (column 10), indicating the effect of treatment with compound on cell survival.

Assay [4] concerns the target T1, PRMT5. Description: PRMT5 biochemical IC50 assay with SAM as cofactor. The following applies: PRMT5, SAM as cofactor; read-out: SAM IC50.
The subject of assay [5] is HAP1 MTAP-intact cell line. Description: SDMA in-cell western assay, HAP1 MTAP-intact. The following applies: Homo sapiens, HAP1, SDMA in-cell western, HAP1 MTAP-intact; read-out: MTAP HAP1 intact IC50. In kind it is cell-based. The essentials: as §1
For assay [6], the target named is T1, PRMT5. Description: PRMT5 biochemical IC50 assay with no cofactor. The following applies: PRMT5, no cofactor. The text has this:
Table 1 indicates IC50 values (μM) against PRMT5 for exemplary compounds in the presence of SAM as cofactor, with no cofactor, and with MTA as cofactor, respectively (columns 4-6). […] Ki values can be calculated from the IC50 values as described in the Examples section. As detailed in the Examples section, for the assay performed in the presence of SAM, IC50=Ki×1.5 (Ki=IC50/1.5).

The mark [7] stands for this setting: read-out: HAP 1 MTAP deleted IC50.
Setting [8] is: IC50 ratio HAP1 MTAP-intact / HAP1 MTAP-deleted.
[9] abbreviates: HAP1, viability assay, MTAP-deleted cell line.
The mark [10] stands for this setting: read-out: HAP1 MTAP deleted IC50.
[11] abbreviates: HAP1, viability assay, HAP1 MTAP-deleted.
The mark [12] stands for this setting: HAP1, viability IC50, MTAP-deleted cell line.

T1 sequence (O14744 whole entry): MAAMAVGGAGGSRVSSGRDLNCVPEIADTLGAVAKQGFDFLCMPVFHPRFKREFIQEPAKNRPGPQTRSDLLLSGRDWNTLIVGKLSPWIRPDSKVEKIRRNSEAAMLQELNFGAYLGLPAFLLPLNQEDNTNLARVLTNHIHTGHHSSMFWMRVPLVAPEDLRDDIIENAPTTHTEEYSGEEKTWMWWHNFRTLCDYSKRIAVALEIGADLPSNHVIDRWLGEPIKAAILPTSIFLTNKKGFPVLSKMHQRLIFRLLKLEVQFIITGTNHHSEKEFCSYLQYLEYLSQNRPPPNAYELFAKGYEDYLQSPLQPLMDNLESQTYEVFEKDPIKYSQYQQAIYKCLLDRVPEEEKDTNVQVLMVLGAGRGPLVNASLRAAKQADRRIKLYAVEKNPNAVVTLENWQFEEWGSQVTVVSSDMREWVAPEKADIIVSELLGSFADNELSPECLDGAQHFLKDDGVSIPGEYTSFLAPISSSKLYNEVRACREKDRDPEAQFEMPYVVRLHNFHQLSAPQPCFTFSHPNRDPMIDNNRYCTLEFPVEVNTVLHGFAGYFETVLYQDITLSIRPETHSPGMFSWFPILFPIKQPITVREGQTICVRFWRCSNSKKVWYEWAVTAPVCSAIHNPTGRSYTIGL
T1 sequence (Q9BQA1 whole entry partner): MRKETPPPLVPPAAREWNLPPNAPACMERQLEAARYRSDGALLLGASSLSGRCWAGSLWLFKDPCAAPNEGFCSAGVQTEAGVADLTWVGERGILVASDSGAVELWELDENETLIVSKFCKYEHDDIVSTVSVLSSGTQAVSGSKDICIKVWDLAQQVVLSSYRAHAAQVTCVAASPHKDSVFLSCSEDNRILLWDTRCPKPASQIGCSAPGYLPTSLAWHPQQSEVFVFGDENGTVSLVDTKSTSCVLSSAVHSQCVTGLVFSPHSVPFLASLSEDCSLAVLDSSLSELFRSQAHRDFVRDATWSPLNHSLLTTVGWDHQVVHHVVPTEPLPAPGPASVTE

Consider `CCc1cc(NC(=O)C(=O)N2C[C@H](C)CC[C@H]2c2cccc3[nH]ncc23)cnc1N` (racemic) [Compound 911, N-(6-amino-5-ethyl-3-pyridyl)-2-[(2S,5R)-2-(1H-indazol-4-yl)-5-methyl-1-piperidyl]-2-oxo-acetamide], for which the IC50 at PRMT5 [1] was > 500 nM; in assay [2] (setting [7]) it was > 1000 nM; in assay [3] (setting [9]), > 10000 nM; at PRMT5 [4], > 500 nM; in assay [5], > 1000 nM; on PRMT5 [6] (read-out: No Cofactor/rel IC50), > 500 nM. The MTAP intact/deleted ratio entry in assay [2] (setting [8]) is “C (an IC50 ratio of less than 3 fold)”.
For `Cc1cc(NC(=O)C(=O)N2C[C@H](C)CC[C@H]2c2ccc(N3CCN(C)CC3)cc2)cnc1N` (racemic) [Compound 1105, rac-N-(6-Amino-5-methyl-3-pyridyl)-2-[(2R,5S)-5-methyl-2-[4-(4-methylpiperazin-1-yl)phenyl]-1-piperidyl]-2-oxo-acetamide], the IC50 on PRMT5 [1] is 50 to 500 nM; in assay [2] (setting [10]), < 100 nM; in assay [3] (setting [9]), < 1000 nM; at PRMT5 [4], 50 to 500 nM; in assay [5], 100 to 1000 nM; on PRMT5 [6] (read-out: No Cofactor/rel IC50), 50 to 500 nM. Also, the MTAP intact/deleted ratio entry in assay [2] (IC50 ratio HAP1 MTAP-intact vs HAP1 MTAP-deleted) is recorded as “A (an IC50 ratio greater than or equal to 10 fold)”.
Consider `Cc1cc(NC(=O)C(=O)N2C[C@@H](C)CC[C@@H]2c2cc(F)c(F)c(Cl)c2)cnc1N` (single isomer, unassigned) [Compound 857], for which the IC50 on PRMT5 [1] was < 50 nM; in assay [2] (setting [10]), < 100 nM; in assay [3] (setting [11]) it was 1000 to 10000 nM; at PRMT5 [4], 50 to 500 nM; in assay [5], > 1000 nM; at PRMT5 [6] (read-out: No Cofactor/rel IC50), 50 to 500 nM. In addition, the MTAP intact/deleted ratio result in assay [2] (setting [8]) is on record as “A (an IC50 ratio greater than or equal to 10 fold)”.
Take `Cc1cc(NC(=O)C(=O)N2CCCC[C@@H]2c2ccc3[nH]ncc3c2)cnc1N` (single isomer, unassigned) [Compound 535]: the IC50 is > 500 nM on PRMT5 [1]; > 1000 nM in assay [2] (setting [7]); > 10000 nM in assay [3] (setting [12]); > 500 nM at PRMT5 [4]; > 1000 nM in assay [5]; > 500 nM on PRMT5 [6] (read-out: No Cofactor/rel IC50). Besides, the MTAP intact/deleted ratio entry in assay [2] (setting [8]) is recorded as “B (an IC50 ratio greater than or equal to 3 fold but lower than 10 fold)”.
Take `Cc1cc(NC(=O)C(=O)N2C[C@@H](C)CC[C@@H]2c2ccc(-c3cn[nH]c3)cc2)cnc1N` (single isomer, unassigned) [Compound 629]: the IC50 at PRMT5 [1] is > 500 nM; in assay [2] (setting [7]), > 1000 nM; in assay [3] (setting [12]), > 10000 nM; at PRMT5 [4], > 500 nM; in assay [5] it was > 1000 nM; at PRMT5 [6] (read-out: No Cofactor/rel IC50) it was > 500 nM. Besides, the MTAP intact/deleted ratio result in assay [2] (setting [8]) is on record as “B (an IC50 ratio greater than or equal to 3 fold but lower than 10 fold)”.
Consider `CCc1cc(NC(=O)C(=O)N2C[C@H](C)CC[C@H]2c2cc3[nH]ncc3s2)cnc1N` (single isomer, unassigned) [Compound 955], for which the IC50 was < 50 nM at PRMT5 [1]; < 100 nM in assay [2] (setting [7]); < 1000 nM in assay [3] (setting [9]); 50 to 500 nM on PRMT5 [4]; 100 to 1000 nM in assay [5]; < 50 nM on PRMT5 [6] (read-out: No Cofactor/rel IC50). Besides, in assay [2] (setting [8]), the MTAP intact/deleted ratio result was “A (an IC50 ratio greater than or equal to 10 fold)”.
With `C[C@@H]1CC[C@@H](c2ccc3c(c2)CCO3)N(C(=O)C(=O)Nc2cncc(C(N)=O)c2)C1` (racemic) [Compound 282, rac-5-{2-[(2R,5S)-2-(2,3-Dihydro-1-benzofuran-5-yl)-5-methylpiperidin-1-yl]-2-oxoacetamido}pyridine-3-carboxamide], the IC50 on PRMT5 [1] is 50 to 500 nM; in assay [2] (setting [10]) it was 100 to 1000 nM; in assay [3] (setting [9]) it was > 10000 nM; on PRMT5 [4] it was > 500 nM; in assay [5], > 1000 nM; at PRMT5 [6] (read-out: No Cofactor/rel IC50), > 500 nM. In addition, the MTAP intact/deleted ratio result in assay [2] (setting [8]) is reported as “A (an IC50 ratio greater than or equal to 10 fold)”.
Consider `CCc1ccc([C@@H]2CC[C@@H](C)CN2C(=O)C(=O)Nc2cnc(N)c(C)c2)cn1` (single isomer, unassigned) [Compound 1013], for which the IC50 at PRMT5 [1] is < 50 nM; in assay [2] (setting [7]) it was < 100 nM; in assay [3] (setting [9]) it was 1000 to 10000 nM; at PRMT5 [4], 50 to 500 nM; in assay [5] it was 100 to 1000 nM; at PRMT5 [6] (read-out: No Cofactor/rel IC50) it was 50 to 500 nM. The MTAP intact/deleted ratio entry in assay [2] (setting [8]) is listed as “B (an IC50 ratio greater than or equal to 3 fold but lower than 10 fold)”.
As for `C[C@H]1CC[C@H](c2ccc(N)nc2)N(C(=O)C(=O)Nc2cncc(C(N)=O)c2)C1` (single isomer, unassigned) [Compound 493], the IC50 on PRMT5 [1] is > 500 nM; in assay [2] (setting [10]), > 1000 nM; in assay [3] (setting [9]), > 10000 nM; at PRMT5 [4], > 500 nM; in assay [5], > 1000 nM; on PRMT5 [6] (read-out: No Cofactor/rel IC50), > 500 nM. Moreover, the MTAP intact/deleted ratio entry in assay [2] (setting [8]) was “C (an IC50 ratio of less than 3 fold)”.
On to `N#C[C@@H]1CCN(C(=O)C(=O)Nc2cncc(C(N)=O)c2)[C@H](c2ccccc2)C1` (single isomer, unassigned) [Compound 353], for which the IC50 on PRMT5 [1] was > 500 nM; in assay [2] (setting [10]) it was > 1000 nM; in assay [3] (setting [9]), > 10000 nM; at PRMT5 [4], > 500 nM; in assay [5], > 1000 nM; at PRMT5 [6] (read-out: No Cofactor/rel IC50) it was > 500 nM. Also, the MTAP intact/deleted ratio entry in assay [2] (setting [8]) was “C (an IC50 ratio of less than 3 fold)”.
Take `COc1ncc(NC(=O)C(=O)N2C[C@H](C)CC[C@H]2c2ccc(F)cc2)cc1C(N)=O` (single isomer, unassigned) [Compound 446]: the IC50 on PRMT5 [1] was < 50 nM; in assay [2] (setting [10]), < 100 nM; in assay [3] (setting [9]) it was 1000 to 10000 nM; at PRMT5 [4], 50 to 500 nM; in assay [5], > 1000 nM; on PRMT5 [6] (read-out: No Cofactor/rel IC50), 50 to 500 nM. Further, the MTAP intact/deleted ratio result in assay [2] (setting [8]) is listed as “A (an IC50 ratio greater than or equal to 10 fold)”.
`Cc1cc(NC(=O)C(=O)N2C[C@H](C)CC[C@H]2c2ccn(-c3cc[nH]n3)n2)cnc1N` (single isomer, unassigned) [Compound 782]: the IC50 is < 50 nM at PRMT5 [1]; < 100 nM in assay [2] (setting [10]); < 1000 nM in assay [3] (setting [11]); < 50 nM on PRMT5 [4]; 100 to 1000 nM in assay [5]; < 50 nM on PRMT5 [6] (read-out: No Cofactor/rel IC50). Moreover, the MTAP intact/deleted ratio result in assay [2] (setting [8]) is “A (an IC50 ratio greater than or equal to 10 fold)”.
Consider `Cc1cc(NC(=O)C(=O)N2CCCCC2c2cccc3ocnc23)cnc1N` (stereo not shown) [Compound 140, N-(6-Amino-5-methyl-3-pyridyl)-2-[2-(1,3-benzoxazol-4-yl)-1-piperidyl]-2-oxo-acetamide], for which the IC50 is > 500 nM at PRMT5 [1]; 100 to 1000 nM in assay [2] (setting [7]); > 10000 nM in assay [3] (setting [9]); > 500 nM at PRMT5 [4]; > 1000 nM in assay [5]; > 500 nM on PRMT5 [6] (read-out: No Cofactor/ rel IC50). In assay [2] (setting [8]), the “MTAP intact/deleted ratio” value is listed as “A (an IC50 ratio greater than or equal to 10 fold)”.
Turning to `COc1ncc(NC(=O)C(=O)N2C[C@@H](C)CC[C@@H]2c2ccc(NC(C)=O)cc2)cc1C(N)=O` (single isomer, unassigned) [Compound 761], the IC50 was > 500 nM at PRMT5 [1]; > 1000 nM in assay [2] (setting [10]); > 10000 nM in assay [3] (setting [11]); > 500 nM at PRMT5 [4]; > 1000 nM in assay [5]; > 500 nM at PRMT5 [6] (read-out: No Cofactor/rel IC50). Besides, in assay [2] (setting [8]), the MTAP intact/deleted ratio result was “C (an IC50 ratio of less than 3 fold)”.
On to `C[C@@H]1CC[C@@H](c2ccc3nncn3c2)N(C(=O)C(=O)Nc2cncc(C(N)=O)c2)C1` (racemic) [Compound 272, rac-5-{2-[(2R,5S)-5-Methyl-2-{[1,2,4]triazolo[4,3-a]pyridin-6-yl}piperidin-1-yl]-2-oxoacetamido}pyridine-3-carboxamide], for which the IC50 on PRMT5 [1] was 50 to 500 nM; in assay [2] (setting [10]), > 1000 nM; in assay [3] (setting [9]), > 10000 nM; at PRMT5 [4], 50 to 500 nM; in assay [5], > 1000 nM; on PRMT5 [6] (read-out: No Cofactor/rel IC50) it was 50 to 500 nM. Moreover, the MTAP intact/deleted ratio entry in assay [2] (setting [8]) was “C (an IC50 ratio of less than 3 fold)”.
Regarding `Cc1ncc(NC(=O)C(=O)N2C[C@H](C)CC[C@H]2c2ccc3c(c2)CCC(=O)N3)cc1C(F)F` (single isomer, unassigned) [Compound 874], the IC50 is < 50 nM at PRMT5 [1]; < 100 nM in assay [2] (setting [10]); < 1000 nM in assay [3] (setting [11]); 50 to 500 nM on PRMT5 [4]; 100 to 1000 nM in assay [5]; 50 to 500 nM at PRMT5 [6] (read-out: No Cofactor/rel IC50). Also, the MTAP intact/deleted ratio result in assay [2] (setting [8]) was “A (an IC50 ratio greater than or equal to 10 fold)”.

The values are drawn from patent publication US11999727B2 (Tango Therapeutics, Inc., priority 2020, dated 2024).
